One may read the IC50 as the concentration that inhibits the measured activity by half. A low value points to greater potency. As a reminder, the Emax is the greatest response seen or fitted, relative to the assay's reference. The term MIC denotes the least concentration at which growth counts as inhibited.

Read-outs that look alike come from different tables or passages of the source.

Data set [1] concerns ES-2 (human ovarian cancer). The data set can be described thus: Cell culture cytotoxicity screening (Alamar Blue), ES-2. It counts as cell-based. As to conditions: for IC50: ES-2, Alamar Blue. How it is done:
(§1) FIG. 8. Cytotoxicity of pantaphos across various cancer cell lines. Assays were conducted as described (mBio. 2021 Feb. 2; 12(1):e03402-20), using the Alamar Blue method with 72-hour treatment using Raptinal ([…]) as Dead cell control; n=3. Cell seeding densities: CT26 (colon carcinoma) 2000 c/w; HOS (osteosarcoma) 2500 c/w; ES-2 (ovarian carcinoma), HCT-116 (colorectal carcinoma), A-549 (lung carcinoma), A-172 (glioblastoma), D54 (glioblastoma), U87 (glioblastoma), T98G (glioblastoma), SK-ML-28 (melanoma), MCF-7 (breast cancer), AM38 (glioblastoma) and MDA-MB-231 (breast cancer) 3000 c/w; U118MG (malignant glioma) 4000 c/w; HepG2 (liver cancer) 8000 c/w. c/w=cells per well. IC50 and Emax values shown in Table 6 were extracted from the raw data plotted in FIG. 8.
(§2) Cell culture cytotoxicity screening. The compounds were evaluated for their ability to kill cancer cell lines in culture, using HOS (osteosarcoma); ES-2 (ovarian cancer); HCT 116 (colon cancer); A549 (lung carcinoma); and A172 (glioma) cells. Human skin fibroblast cells (HFF-1) were also assessed. Cells were seeded (3000 cells well^−1 for ES-2, HCT 116, A549 and A172; 4000 cells well^−1 for HFF-1 and 2500 cells well^−1 for HOS) in a 96-well plate and allowed to attach overnight. Cells were treated with pantaphos in water. The concentrations of the tested compounds were 5 nM to 100 μM (1% water final; 100 μl well^−1). Raptinal (50 μM) was used as a dead control. On each plate, five technical replicates per compound were performed. 72 hours post-treatment, cell viability was assessed using the Alamar Blue method (http://www.bio-rad-antibodies.com/measuring-cytotoxicity-proliferation-spectrophotometry-fluorescence-alamarBlue.html). […] Conversion of Alamar Blue was measured with a plate reader (SpectraMax M3; Molecular Devices) by fluorescence (excitation wavelength: 555 nm; emission wavelength: 585 nm; cutoff 570 nm; autogain). Percentage death was determined by normalizing to water-treated cells and Raptinal-treated cells. […]
(Resazurin is reduced to fluorescent resorufin, in cell work by metabolically active cells.)

The subject of the next data set is U87 (glioblastoma). Briefly: Cytotoxicity profiling (Alamar Blue), U87. It counts as cell-based. As to conditions: Homo sapiens, 72-hour treatment. How it is done:
as §1, with “IC50 and Emax values shown in Table 6 were extracted from the raw data plotted in FIG. 8.” left out
Cell culture cytotoxicity screening. The compounds were evaluated for their ability to kill cancer cell lines in culture, using HOS (osteosarcoma); ES-2 (ovarian cancer); HCT 116 (colon cancer); A549 (lung carcinoma); and A172 (glioma) cells. Human skin fibroblast cells (HFF-1) were also assessed. […] 72 hours post-treatment, cell viability was assessed using the Alamar Blue method (http://www.bio-rad-antibodies.com/measuring-cytotoxicity-proliferation-spectrophotometry-fluorescence-alamarBlue.html). […] Conversion of Alamar Blue was measured with a plate reader (SpectraMax M3; Molecular Devices) by fluorescence (excitation wavelength: 555 nm; emission wavelength: 585 nm; cutoff 570 nm; autogain). […]

Another data set has as its system MCF-7 (breast cancer). Briefly: Cytotoxicity profiling (Alamar Blue), MCF-7. It counts as cell-based, human. The method, then: as §1, §2
Data set [2] concerns MDA-MB-231 (breast cancer). The data set can be described thus: Cytotoxicity profiling (Alamar Blue), MDA-MB-231. It counts as cell-based, human. How it is done:
as §1, §2

Data set [3] relates to Aspergillus fumigatus 1163. Briefly: Fungicidal bioassay (MIC), Aspergillus fumigatus. Type of data set: cell-based. The conditions noted are these: for MIC: Aspergillus fumigatus, 1163, 48 hrs growth, CLSI. How it is done:
Bacteria, plasmids and growth conditions. Bacterial strains, plasmids and primers used in this study are described in Table 3 and 4. General chemical and molecular biology reagents were purchased from Sigma-Aldrich or New England Biolabs. Phosphinothricin (glufosinate) was purchased from GoldBio (CAS #77182-82-2). Standard bacterial growth media were prepared as described (Current Protocols in Molecular Biology 2019, 125:e81, e82, e83). E. coli strains were typically grown at 37° C.; P. ananatis strains were typically grown at 30° C. Phosphonate induction media (PIM) was prepared as follows: 8.37 g/L MOPS, 0.72 g/L Tricine, 0.58 g/L NaCl, 0.51 g/L NH4Cl, 1.6 g/L KOH, 0.1 g/L MgCl2·6H2O, 0.05 g/L K2SO4, 0.2 g/L K2HIPO4 were dissolved H2O and steam sterilized for 20 min at 121° C. After cooling, 1× sterile trace element solution was added (1000× stock: 1.5 g/L nitrilotriacetic acid trisodium salt, 0.8 g/L Fe(NH4)2(SO4)2·7H2O, 0.2 g/L Na2SeO3, 0.1 g/L CoCl2·6H2O, 0.1 g/L MnSO4·H2O, 0.1 g/L Na2MoO4·2H2O, 0.1 g/L Na2WO4·2H2O, 0.1 g/L ZnSO4·7H2O, 0.1 g/L NiCl2·6H2O, 0.01 g/L H3BO3, 0.01 g/L CuSO4·5H2O) followed by addition of 1% (v/v) sterile glycerol and 50 μg/mL sterile kanamycin. For culturing of Candida and Saccharomyces strains, Rosewell Park Memorial Institute 1640 medium (RPMI; Sigma-Aldrich R6504) was used for liquid culturing and Sabouraud Dextrose Agar (SDA; Difco™ 210950) for solid plating unless otherwise specified. For Aspergillus strains, Rosewell Park Memorial Institute 1640 medium (RPMI) was used for liquid culturing and Potato Dextrose Agar (PDA; Difco™ 213400) was used for solid plating unless otherwise specified. YMM medium (6.7 g/L yeast nitrogen base without amino acids [BD Difco™ 291940], 20 g/L glucose, 1× trace element solution) was used as minimal media for fungal strains.
Fungicidal bioassays. […] Minimum Inhibitory Concentration (MIC) was determined visually by finding the concentration of compound at which there was no visual difference between that concentration and the uninoculated media control.

`O=C(O)/C=C(\C(=O)O)C(O)P(=O)(O)O` (stereo not shown) [pantaphos, 2-(hydroxy(phosphono)methyl)maleate]: the IC50 in data set [1] (72-hour treatment (Table 6)) was > 100000 nM; in data set [1] (Homo sapiens, 72 hours), > 100000 nM; in the data set on MCF-7 (breast cancer) (Homo sapiens, MCF7, MCF-7, Alamar Blue, 72-hour treatment (Table 6)) it was 2880 ± 6280 nM; in data set [2] (Homo sapiens, MDA-MB-231, Alamar Blue, 72-hour treatment (Table 6)), 2680 ± 230 nM. In data set [1] (ES-2, maximum dose), the “cytotoxicity at the maximum dose, in words” value was “unaffected”. The maximal response (Emax) in the data set with U87 (glioblastoma) is 38 to 48%; with MCF-7 (breast cancer) (Homo sapiens, MCF7, MCF-7, Alamar Blue, 72-hour treatment), 90 to 92%; in data set [2] (Homo sapiens, MDA-MB-231, Alamar Blue, 72-hour treatment), 91%. Besides, the “sensitivity of the cell line to the compound, in words” value (in the data set on MCF-7 (breast cancer) (MCF-7); in data set [2] (MDA-MB-231)) was “sensitive” each time. In addition, the MIC in data set [3] (M9 minimal medium, read-out: MIC, Minimal medium) is > 125 µM; in data set [3] (RPMI 1640 medium, read-out: MIC, Rich medium) it was > 125 µM. The “effect on the growth of fungi, in words” value in data set [3] (rich or minimal media) is on record as “no effect on the growth”.

For the origin of these results see patent publication US20250282802A1, “P[…] AND METHODS” (priority 2020, published 2025).
